PubChem BioAssay (NCI)
Where “and” joins values, the source holds several entries; their conditions need not be identical. Equal values may be shown once.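 A five-concentration, 48-hour dose response in 96-well plates underlies each endpoint, interpolated linearly between surrounding concentrations. The concentration for 50% growth inhibition is given as GI50. TGI marks complete inhibition of growth.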

Key:
Assay in all cases: DTP human tumour cell line panel, 48 h
[1] = tested on: NCI/ADR-RES ovarian
[2] = tested on: HT29 colon
[3] = tested on: 786-0 renal
[4] = tested on: SK-MEL-5 melanoma
[5] = tested on: OVCAR-3 ovarian
[6] = tested on: CAKI-1 renal
[7] = tested on: PC-3 prostate
[8] = tested on: SNB-75 CNS
[9] = tested on: HL-60(TB) leukemia
[10] = tested on: COLO 205 colon

| SMILES | GI50 [1] | TGI [1] | GI50 [2] | TGI [2] | GI50 [3] | TGI [3] | GI50 [4] | TGI [4] | GI50 [5] | TGI [5] | GI50 [6] | TGI [6] | GI50 [7] | TGI [7] | GI50 [8] | TGI [8] | GI50 [9] | TGI [9] | GI50 [10] | TGI [10] |
| --- | --- | --- | --- | --- | --- | --- | --- | --- | --- | --- | --- | --- | --- | --- | --- | --- | --- | --- | --- | --- |
| Cc1ccc(C2CC(c3ccc(Nc4ccnc5cc(Cl)ccc45)cc3)=NN2C=O)cc1 (configuration not stated) | 5.22 µM | > 100 µM | 6.09 µM | > 100 µM | 50.9 µM | > 100 µM | 1.74 µM | > 100 µM | 6.82 µM | > 100 µM | > 100 µM | > 100 µM | 4.61 µM | > 100 µM | > 100 µM | > 100 µM | 2.27 µM | 6.21 µM | 4.59 µM | > 100 µM |
| COc1ccc2c(c1OC)O/C(=C\c1ncc([N+](=O)[O-])n1C)C2=O | 1.72 µM | 7.87 µM | 0.836 µM | 5.02 µM | 1.95 µM | 5.17 µM | 0.905 µM | 2.35 µM | 1.6 µM | 6.16 µM | 0.376 µM | 2.46 µM | 3.76 µM | > 29.4 µM | 2.14 µM | 6.85 µM | 0.834 µM |  | 1.16 µM | 2.86 µM |
| CN1CC[C@H](c2c(O)cc(O)c3c(=O)cc(-c4ccccc4Cl)oc23)[C@H](O)C1 | 0.116 µM | > 10 µM |  | > 10 µM | 0.0717 µM | > 10 µM | 0.052 µM | 0.159 µM | 0.0546 µM | > 10 µM |  | > 10 µM | 0.0776 µM | > 2.59 µM | 0.053 µM | 0.155 µM | 0.0508 µM | > 2.49 µM | 0.0433 µM | 0.209 µM |
| CCc1ccc2c(c1)N(CCO)C1=C(C(=O)OC1)C2c1cc(OC)c(OC)c(OC)c1 (configuration not stated) | 0.974 µM | 6.65 µM | 0.143 µM | 0.447 µM | 0.245 µM | > 14.5 µM | 0.126 µM | 0.581 µM | 0.112 µM | 0.274 µM | 0.599 µM | > 50 µM | 0.196 µM | > 50 µM | 0.134 µM | > 50 µM | 0.142 µM | 0.48 µM | 0.151 µM | 0.437 µM |
| COc1ccc2c(c1)C(=O)c1c-2c(OCCN(C)C)nc2cc(OC)c(OC)cc12 | 4.58 µM | 42.3 µM | 1.76 µM | 18.1 µM | 13 µM | 27.2 µM | 32.1 µM | > 100 µM | 2.23 µM | 15.1 µM | 3.68 µM | 31.6 µM | 3.76 µM | 65.9 µM | 8.65 µM | 26.1 µM | 51.6 µM | > 100 µM | 11.5 µM | > 100 µM |
| CCn1c(-c2nonc2N)nc2cnc(Oc3cccc(NC(=O)c4ccc(N(C)C)cc4)c3)cc21 | > 25 µM | > 25 µM | > 25 µM | > 25 µM | 21.6 µM | > 25 µM | > 25 µM | > 25 µM | > 25 µM | > 25 µM | 0.688 µM | > 25 µM | 12.4 µM | > 25 µM | 0.106 µM | > 25 µM | > 25 µM | > 25 µM | > 13.5 µM | > 25 µM |
| COc1cc(NC2CCCCC2O)c2nc(-c3ccc(Cl)cc3)ccc2c1 (configuration not stated) | 6.1 µM | > 100 µM | 4.29 µM | 23.8 µM | 5.23 µM | 18.6 µM | 10.6 µM | 23.1 µM | 10.5 µM | 32.8 µM | 4.73 µM | 63.2 µM | 4.87 µM | > 100 µM | 5.04 µM | 59.1 µM | 7.57 µM | 63 µM | 6.87 µM | 20.7 µM |
| COc1ccc(C2NC(=S)NC3=C2CCOc2c3ccc3ccccc23)cc1 (configuration not stated) | 32.6 µM | > 100 µM | 36.6 µM | > 100 µM | > 100 µM | > 100 µM | 18.2 µM | > 100 µM | 51.5 µM | > 100 µM | > 100 µM | > 100 µM | > 100 µM | > 100 µM | 60.7 µM | > 100 µM | 23.4 µM | > 100 µM | 53.8 µM | > 100 µM |
| COc1ccc(-c2c(N)noc2-c2cc(OC)c3c(c2)OCCO3)cc1 | < 0.01 µM | 0.0226 µM | < 0.01 µM | 0.823 µM | < 0.012 µM |  | < 0.01 µM | 0.176 µM | < 0.01 µM | < 0.0126 µM | < 0.01 µM | 34.1 µM | < 0.0157 µM | > 40.7 µM | < 0.01 µM | 39 µM | 0.0102 µM | 0.0434 µM | < 0.01 µM | 0.0398 µM |
| Cc1cc(NN=C(c2ccc(O)cc2)c2ccc(O)cc2)c([N+](=O)[O-])cc1[N+](=O)[O-] | 3.75 µM | > 100 µM | 5.98 µM | > 100 µM | 5.39 µM | 22.1 µM | 0.308 µM | 3.74 µM | 4.14 µM | 19.4 µM | 18.7 µM | 51.1 µM | 3.23 µM |  | 6.84 µM | 60.5 µM | 2.09 µM | 34.8 µM | 5.87 µM | 40.5 µM |
| CC(=O)OCC1OC(n2c3c(cc(C#N)c2=S)CCCC3)C(OC(C)=O)C(OC(C)=O)C1OC(C)=O (configuration not stated) |  | > 100 µM | 26.7 µM and > 100 µM | 83.9 µM and > 100 µM | > 100 µM and 26.9 µM | > 100 µM |  | > 100 µM | 45.2 µM and > 100 µM | > 100 µM | > 100 µM and 42.1 µM | > 100 µM | 36.6 µM and > 100 µM | > 100 µM | > 100 µM and 14.6 µM | > 100 µM and 50.4 µM | 48.9 µM and > 100 µM | > 100 µM |  | > 100 µM |
